Reference: ChEMBL document CHEMBL1250431, “Morphinans and isoquinolines: acetylcholinesterase inhibition, pharmacophore modeling, and interaction with opioid receptors” (Bioorg Med Chem, 2010)

Assays:
Mu-type opioid receptor = Mu-type opioid receptor (Rattus norvegicus, UniProt P33535); assay: Displacement of [3H]DAMGO from mu opioid receptor in rat brain membrane; format: cell membranes
[1] = molecular target: Kappa-type opioid receptor (Cavia porcellus, UniProt P41144); assay: Displacement of [3H]U69593 from kappa opioid receptor in guinea pig brain membrane; format: cell membranes
Kappa-type opioid receptor, sequence (P41144 whole entry): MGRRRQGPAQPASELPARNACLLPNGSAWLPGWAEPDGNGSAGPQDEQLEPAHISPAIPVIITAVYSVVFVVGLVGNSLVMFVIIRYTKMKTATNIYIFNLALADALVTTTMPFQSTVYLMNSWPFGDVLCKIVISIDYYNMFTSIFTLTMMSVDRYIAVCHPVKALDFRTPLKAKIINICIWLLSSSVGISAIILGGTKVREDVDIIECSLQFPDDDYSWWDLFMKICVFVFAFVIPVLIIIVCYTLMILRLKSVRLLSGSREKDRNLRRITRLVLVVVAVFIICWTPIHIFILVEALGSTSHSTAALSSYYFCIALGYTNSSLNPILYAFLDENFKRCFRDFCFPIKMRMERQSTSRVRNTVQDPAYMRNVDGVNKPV

[2] = molecular target: Delta-type opioid receptor (Rattus norvegicus, UniProt P33533); assay: Displacement of [3H][Ile5,6]deltorphin2 from delta opioid receptor in rat brain membrane; format: cell membranes
Delta-type opioid receptor, sequence (P33533 whole entry): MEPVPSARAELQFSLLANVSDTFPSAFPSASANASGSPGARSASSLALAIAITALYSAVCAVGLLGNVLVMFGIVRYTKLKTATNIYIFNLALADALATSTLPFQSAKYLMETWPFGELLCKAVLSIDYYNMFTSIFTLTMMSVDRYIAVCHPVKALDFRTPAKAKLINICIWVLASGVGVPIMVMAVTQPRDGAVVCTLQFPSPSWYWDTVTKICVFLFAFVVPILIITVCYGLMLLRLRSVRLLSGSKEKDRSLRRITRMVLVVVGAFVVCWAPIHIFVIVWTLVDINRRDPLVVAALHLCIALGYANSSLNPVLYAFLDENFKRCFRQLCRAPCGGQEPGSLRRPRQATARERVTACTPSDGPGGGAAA

Acetylcholinesterase = Acetylcholinesterase (Electrophorus electricus, UniProt O42275); assay: Inhibition of electric eel AChE by Ellman's method
Acetylcholinesterase, sequence (O42275 whole entry): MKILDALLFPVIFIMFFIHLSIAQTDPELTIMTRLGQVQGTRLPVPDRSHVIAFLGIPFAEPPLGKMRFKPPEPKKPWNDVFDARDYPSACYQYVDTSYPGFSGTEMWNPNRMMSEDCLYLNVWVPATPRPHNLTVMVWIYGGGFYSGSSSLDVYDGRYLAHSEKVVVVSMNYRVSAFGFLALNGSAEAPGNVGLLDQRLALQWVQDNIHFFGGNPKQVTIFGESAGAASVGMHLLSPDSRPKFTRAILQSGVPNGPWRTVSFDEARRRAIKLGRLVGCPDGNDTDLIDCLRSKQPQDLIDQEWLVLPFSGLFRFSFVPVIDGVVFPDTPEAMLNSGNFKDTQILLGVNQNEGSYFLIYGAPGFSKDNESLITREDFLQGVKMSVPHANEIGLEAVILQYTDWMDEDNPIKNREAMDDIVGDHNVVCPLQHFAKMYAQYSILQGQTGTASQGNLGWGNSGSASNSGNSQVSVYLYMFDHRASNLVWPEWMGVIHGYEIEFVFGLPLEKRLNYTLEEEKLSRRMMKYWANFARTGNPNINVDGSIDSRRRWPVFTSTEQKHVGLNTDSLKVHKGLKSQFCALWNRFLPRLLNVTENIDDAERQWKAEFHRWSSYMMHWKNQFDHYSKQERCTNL

Mu-type opioid receptor, sequence (P33535 whole entry): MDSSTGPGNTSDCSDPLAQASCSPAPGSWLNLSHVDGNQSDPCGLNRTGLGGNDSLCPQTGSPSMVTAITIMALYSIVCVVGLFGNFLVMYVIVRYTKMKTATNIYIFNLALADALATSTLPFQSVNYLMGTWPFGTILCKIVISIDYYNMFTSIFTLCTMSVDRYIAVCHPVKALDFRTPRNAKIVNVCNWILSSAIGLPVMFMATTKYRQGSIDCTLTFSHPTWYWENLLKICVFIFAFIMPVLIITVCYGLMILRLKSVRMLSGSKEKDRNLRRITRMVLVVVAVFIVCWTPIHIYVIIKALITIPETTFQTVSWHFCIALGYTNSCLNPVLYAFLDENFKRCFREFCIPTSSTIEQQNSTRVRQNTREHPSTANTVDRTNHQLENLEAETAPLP

For `COC1CCC2C(Cc3cccc(O)c3)=NCCC2C1` (stereo unspecified), the Ki (Mu-type opioid receptor) was 2320 nM, the Ki [1] was > 10000 nM and the Ki [2] was > 10000 nM. It also gave an IC50 (Acetylcholinesterase) of 43100 nM.
`COC1=CCC2=C(CCNC2Cc2ccccc2O)C1` (stereo unspecified) was tested, and the Ki (Mu-type opioid receptor) was > 10000 nM, the Ki [1] was > 10000 nM and the Ki [2] was > 10000 nM. It also gave an IC50 (Acetylcholinesterase) of 138000 nM.
`C=CCN1CC[C@]23CC(=O)CC[C@H]2[C@H]1Cc1cccc(OC)c13` gave a Ki (Mu-type opioid receptor) of 6.55 nM, a Ki [1] of 113 nM and a Ki [2] of 217 nM.
In the case of `CCO[C@@]12CCC(=O)C[C@@]13CCN(C)[C@@H]2Cc1cccc(O)c13`, the Ki (Mu-type opioid receptor) is reported as 20.2 nM, the Ki [1] is reported as 33.1 nM and the Ki [2] is reported as 316 nM. It also gave an IC50 (Acetylcholinesterase) of 37100 nM.
Work on `O=CN1CC[C@]23CC(=O)CC[C@H]2[C@H]1Cc1c(O)ccc(O)c13` yielded a Ki (Mu-type opioid receptor) of 67.2 nM, a Ki [1] of 328 nM and a Ki [2] of 1250 nM.
With `O=CN1CC[C@]23CC(=O)CC[C@H]2[C@H]1CC1C(=O)C=CC(=O)C13` (stereo partly specified) the Ki (Mu-type opioid receptor) was 0.46 nM, the Ki [1] was 43.2 nM and the Ki [2] was 12.2 nM. The IC50 (Acetylcholinesterase) was 12700 nM.
Work on `COc1cccc(CC2=NCCc3cc(OC)ccc32)c1` yielded an IC50 (Acetylcholinesterase) of 42900 nM.
Work on `C=CCN1CC[C@]23CC(=O)CC[C@H]2[C@H]1Cc1cccc(OC(C)=O)c13` yielded an IC50 (Acetylcholinesterase) of 193000 nM.
With `O=CN1CC[C@]23c4c5cccc4O[C@H]2C(=O)CC[C@H]3[C@H]1C5` the Ki (Mu-type opioid receptor) was > 10000 nM, the Ki [1] was > 10000 nM and the Ki [2] was > 10000 nM. The IC50 (Acetylcholinesterase) was 60300 nM.
`CCCCCCOc1cccc2c1[C@]13CCN(CC4CC4)[C@H](C2)[C@]1(OC)C=CC(=O)C3` showed an IC50 (Acetylcholinesterase) of 405000 nM.
`CCO[C@@]12CCC(=O)[C@]3(C)Oc4c(O)ccc5c4[C@@]31CCN(C)[C@@H]2C5` was tested, and the Ki (Mu-type opioid receptor) was 0.1 nM, the Ki [1] was 10.2 nM and the Ki [2] was 4.8 nM.
For `COc1cccc2c1[C@]13CCN(C)[C@H](C2)[C@]1(OC)CCC(=O)C3`, the Ki (Mu-type opioid receptor) was 1.15 nM, the Ki [1] was 403 nM and the Ki [2] was 101 nM. For the same molecule, the IC50 (Acetylcholinesterase) was 46200 nM.
Molecule `CO[C@@]12CCC(=O)[C@@H]3Oc4cccc5c4[C@@]31CCN(C)[C@@H]2C5` has an IC50 (Acetylcholinesterase) of 140000 nM.
For `CN1CC[C@]23c4c5cccc4O[C@H]2C(=O)CC[C@@]3(O)[C@H]1C5`, the IC50 (Acetylcholinesterase) was 65300 nM.
Work on `C=CCN1CC[C@]23CC(=O)CC[C@@]2(OC)[C@H]1Cc1cccc(OC)c13` yielded a Ki (Mu-type opioid receptor) of 2 nM, a Ki [1] of 567 nM and a Ki [2] of 210 nM.
For `C=CCN1CC[C@@]23CCCC[C@@H]2[C@@H]1Cc1ccc(O)cc13` [DEXTALLORPHAN], the Ki (Acetylcholinesterase) was 20000 nM.
`CN1CC[C@@]23CCCC[C@@H]2[C@@H]1Cc1ccc(O)cc13` [DEXTRORPHAN] showed a Ki (Acetylcholinesterase) of 20000 nM.
`C=CCN1CC[C@]23CCCC[C@H]2[C@H]1Cc1ccc(O)cc13` [LEVALLORPHAN] gave a Ki (Acetylcholinesterase) of 12000 nM.
Work on `CN1CC[C@]23CCCC[C@H]2[C@H]1Cc1ccc(O)cc13` [LEVORPHANOL] yielded a Ki (Acetylcholinesterase) of 25000 nM.
For `COc1ccc2c3c1O[C@H]1C(=O)CC[C@@]4(O)[C@@H](C2)N(C)CC[C@]314` [OXYCODONE], the IC50 (Acetylcholinesterase) was 76200 nM.
